Key:
Test in all cases: Ba/F3 cell drug screening, Cell Titer Glo
Assay type in all cases: cell-based
[1] = molecular target: T1, EGFR S811F (Homo sapiens, UniProt P00533, S811F); settings: Ba/F3 cells expressing EGFR S811F; 72 hours
T1 construct: expressed in transfected cells; host or cells: Ba/F3 (retroviral, pBabe-Puro based vector; created by GeneScript from EGFR WT)
In short: (§1)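 72 h viability, CellTiter-Glo luminescence; EGFR-mutant Ba/F3 (IL-3-independent, 1 ng/ml EGF), 7-point TKI dose vs DMSO, technical triplicate, 2–3 biological replicates. Normalized to DMSO; IC50 by variable-slope nonlinear regression at 50% inhibition.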

[2] = test system: EGFR I740dupIPVAK; settings: Ba/F3 cells expressing EGFR I740dupIPVAK; 72 hours
In short: as §1

[3] = molecular target: T2, EGFR Ex19del G724S (Homo sapiens, UniProt P00533, DEL746-750/G724S); settings: Ba/F3 cells expressing EGFR Ex19del G724S; 72 hours
T2 construct: expressed in transfected cells; host or cells: Ba/F3 (retroviral transduction, pBabe-Puro based vectors)
In short: as §1

[4] = molecular target: T3, EGFR L858R T790M L792H (Homo sapiens, UniProt P00533, L792H/L858R/T790M); settings: Ba/F3 cells expressing EGFR L858R T790M L792H; 72 hours
T3 construct: expressed in transfected cells; host or cells: Ba/F3 (retroviral transduction, pBabe-Puro based vectors)
In short: as §1

[5] = molecular target: T4, EGFR D770insNPG (Homo sapiens, UniProt P00533, INS770NPG); settings: Ba/F3 cells expressing EGFR D770insNPG; 72 hours
T4 construct: expressed in transfected cells; host or cells: Ba/F3 (retroviral, pBabe-Puro based vector)
In short: as §1

[6] = molecular target: T5, EGFR K757R (Homo sapiens, UniProt P00533, K757R); settings: Ba/F3 cells expressing EGFR K757R; 72 hours
T5 construct: expressed in transfected cells; host or cells: Ba/F3 (retroviral transduction, pBabe-Puro based vectors)
In short: as §1

[7] = molecular target: T6, EGFR L861R (Homo sapiens, UniProt P00533, L861R); settings: Ba/F3 cells expressing EGFR L861R; 72 hours
T6 construct: expressed in transfected cells; host or cells: Ba/F3 (retroviral, pBabe-Puro based vector; created by GeneScript from EGFR WT)
In short: as §1

[8] = molecular target: T7, EGFR H773insNPH (Homo sapiens, UniProt P00533, INS773NPH); settings: Ba/F3 cells expressing EGFR H773insNPH; 72 hours
T7 construct: expressed in transfected cells; host or cells: Ba/F3 (retroviral, pBabe-Puro based vector)
In short: as §1

[9] = molecular target: T8, EGFR E709K G719S (Homo sapiens, UniProt P00533, E709K/G719S); settings: Ba/F3 cells expressing EGFR E709K G719S; 72 hours
T8 construct: expressed in transfected cells; host or cells: Ba/F3 (retroviral transduction, pBabe-Puro based vectors)
In short: as §1

[10] = molecular target: T9, EGFR L833V (Homo sapiens, UniProt P00533, L833V); settings: Ba/F3 cells expressing EGFR L833V; 72 hours
T9 construct: expressed in transfected cells; host or cells: Ba/F3 (retroviral, pBabe-Puro based vector)
In short: as §1

[11] = molecular target: T10, EGFR Ex19del L718V (Homo sapiens, UniProt P00533, DEL746-750/L718V); settings: Ba/F3 cells expressing EGFR Ex19del L718V; 72 hours
T10 construct: expressed in transfected cells; host or cells: Ba/F3 (murine pro-B cells), retroviral transduction with pBabe-Puro based vectors
In short: as §1

[12] = molecular target: T11, EGFR L747S (Homo sapiens, UniProt P00533, L747S); settings: Ba/F3 cells expressing EGFR L747S; 72 hours
T11 construct: expressed in transfected cells; host or cells: Ba/F3 (retroviral transduction, pBabe-Puro based vectors)
In short: as §1

[13] = molecular target: T12, EGFR V769L (Homo sapiens, UniProt P00533, V769L); settings: Ba/F3 cells expressing EGFR V769L; 72 hours
T12 construct: expressed in transfected cells; host or cells: Ba/F3 (retroviral transduction, pBabe-Puro based vectors)
In short: as §1

[14] = molecular target: T13, EGFR Ex19del T790M (Homo sapiens, UniProt P00533, DEL746-750/T790M); settings: Ba/F3 cells expressing EGFR Ex19del T790M; 72 hours
T13 construct: expressed in transfected cells; host or cells: Ba/F3 (retroviral transduction, pBabe-Puro based vectors)
In short: as §1

[15] = molecular target: T14, EGFR S768I (Homo sapiens, UniProt P00533, S768I); settings: Ba/F3 cells expressing EGFR S768I; 72 hours
T14 construct: expressed in transfected cells; host or cells: Ba/F3 (retroviral transduction, pBabe-Puro based vectors)
In short: as §1

[16] = molecular target: T15, EGFR L861Q (Homo sapiens, UniProt P00533, L861Q); settings: Ba/F3 cells expressing EGFR L861Q; 72 hours
T15 construct: expressed in transfected cells; host or cells: Ba/F3 (retroviral, pBabe-Puro based vector)
In short: as §1

[17] = molecular target: T16, EGFR E709A (Homo sapiens, UniProt P00533, E709A); settings: Ba/F3 cells expressing EGFR E709A; 72 hours
T16 construct: expressed in transfected cells; host or cells: Ba/F3 (retroviral transduction, pBabe-Puro based vectors)
In short: as §1

## C=CC(=O)N1CCC(Oc2cc3c(Nc4ccc(Cl)c(Cl)c4F)ncnc3cc2OC)CC1 [Poziotinib]
[1]
  Response of Cells Comprising Classical-Like EGFR Mutations to Second-Generation TKIs: 0.2983
[2]
  Response of Cells Comprising PACC EGFR Mutations to Second-Generation TKIs: 0.02483
[3]
  Response of Cells Comprising PACC EGFR Mutations to Second-Generation TKIs: 0.4952
[4]
  Response of Cells Comprising T790M-like-S EGFR Mutations to Second-Generation TKIs: 56.36
[5]
  Response of Cells Comprising Ex20ins EGFR Mutations to Poziotinib: 0.2889
[6]
  Response of Cells Comprising PACC EGFR Mutations to Second-Generation TKIs: 0.07563
[7]
  Response of Cells Comprising Classical-Like EGFR Mutations to Second-Generation TKIs: 0.01648
[8]
  Response of Cells Comprising Ex20ins EGFR Mutations to Poziotinib: 0.3855
[9]
  Response of Cells Comprising PACC EGFR Mutations to Second-Generation TKIs: 0.01609
[10]
  Response of Cells Comprising Classical-Like EGFR Mutations to Second-Generation TKIs: 0.004716
[11]
  Response of Cells Comprising PACC EGFR Mutations to Second-Generation TKIs: 0.003363
[12]
  Response of Cells Comprising PACC EGFR Mutations to Second-Generation TKIs: 0.01641
[13]
  Response of Cells Comprising PACC EGFR Mutations to Second-Generation TKIs: 0.05673
[14]
  Response of Cells Comprising T790M-like-S EGFR Mutations to Second-Generation TKIs: 3.423
[15]
  Response of Cells Comprising PACC EGFR Mutations to Second-Generation TKIs: 4.858
[16]
  Response of Cells Comprising Classical-Like EGFR Mutations to Second-Generation TKIs: 0.02499
[17]
  Response of Cells Comprising PACC EGFR Mutations to Second-Generation TKIs: 0.02334

Source: patent US20240108623A1, “METHODS OF TREATING CANCER WITH POZIOTINIB” (BOARD OF REGENTS, THE UNIVERSITY OF TEXAS SYSTEM, priority 2021, published 2024)
